Where a SMILES comes first, the peptide text is derived from it. [ ]: non-standard residue; d: D form. The star is where a group is joined. dPhe(4-NHCONH2) = NC(=O)Nc1ccc(C[C@@H](N)C(=O)O)cc1; Dihydroorotyl(S) = O=C1C[C@@H](C(=O)*)NC(=O)N1; dPhe(4-Cl) = N[C@H](Cc1ccc(Cl)cc1)C(=O)O; Phe(4-NH2) = Nc1ccc(C[C@H](N)C(=O)O)cc1; d2Nal = N[C@H](Cc1ccc2ccccc2c1)C(=O)O; Lys(iPr) = CC(C)NCCCC[C@H](N)C(=O)O; d3Pal = N[C@H](Cc1cccnc1)C(=O)O
How the values were obtained:
Format in all cases: in vivo, human
[1] = tested on: patients with intermediate-risk prostate cancer; experiment: Example 9: quality of life (EORTC QLQ-C30, QLQ-PR25, AMS)
Description: (§1) Eligible male patients were aged ≥18 years with a histologically confirmed diagnosis of localized, intermediate-risk prostate cancer, for whom 6-month neoadjuvant and adjuvant androgen deprivation therapy (ADT) to external beam radiation therapy (EBRT) was indicated. The criteria for establishing intermediate-risk prostate cancer included the presence of one of the following, without any high-risk feature: T2b-T2c disease, Gleason score 7, or prostate-specific antigen (PSA) 10-20 ng/mL. Additional inclusion criteria included: EBRT scheduled to begin ≥12 weeks after baseline visit; screening serum testosterone >150 ng/dL (5.2 nmol/L); screening PSA concentration >2 ng/ml; body mass index ≥18.0 at screening or baseline (i.e., the subject's BMI prior to treatment commencing); Eastern Cooperative Oncology Group performance status of 0 or 1 at screening. Based on investigator discretion and clinical assessment of the patient's overall medical and disease status, participation was allowed for older patients with high-risk disease (e.g., based on Gleason score or tumor status) who were deemed likely to benefit from 6 months of neoadjuvant/adjuvant ADT. Most patients had intermediate-risk disease. However, a few patients, based on Gleason score or tumor, node, and metastasis staging system, were technically of higher than intermediate risk.
(§2) Both treatment arms received treatment for 24 weeks. Patients remained on treatment for at least 12 weeks before the start of external beam radiation treatment (EBRT), which was initiated for most patients between Week 13, Day 1 and Week 15, Day 1. EBRT began no later than day 1, week 17.
Quality of Life (QoL) was assessed via the core 30-item European Organisation for Research and Treatment of Cancer quality of life questionnaire (EORTC QLQ-C30), the 25-item prostate cancer module EORTC questionnaire (EORTC QLQ-PR25), and the aging male survey (AMS). QoL assessments were completed at screening, on day 1 of weeks 1, 5, 13, and 25, and at weeks 29, 33, and 37.

[2] = tested on: serum testosterone; experiment: Example 9: serum testosterone, castration and recovery, neoadjuvant/adjuvant ADT to EBRT, versus degarelix; conditions: for Percent recovery (95% CI) to baseline testosterone or >280 ng/dL: 12 weeks from last dose
Description: (§3) Eligible male patients were aged ≥18 years with a histologically confirmed diagnosis of localized, intermediate-risk prostate cancer, for whom 6-month neoadjuvant and adjuvant androgen deprivation therapy (ADT) to external beam radiation therapy (EBRT) was indicated. The criteria for establishing intermediate-risk prostate cancer included the presence of one of the following, without any high-risk feature: T2b-T2c disease, Gleason score 7, or prostate-specific antigen (PSA) 10-20 ng/mL. […] Based on investigator discretion and clinical assessment of the patient's overall medical and disease status, participation was allowed for older patients with high-risk disease (e.g., based on Gleason score or tumor status) who were deemed likely to benefit from 6 months of neoadjuvant/adjuvant ADT.
Both treatment arms received treatment for 24 weeks. […] EBRT began no later than day 1, week 17. […]
(§4) Samples for testosterone, luteinizing hormone (LH), FSH, and PSA concentrations were taken at screening, on day 1 of the first week (additionally days 2 and 4 for testosterone and LH), and on day 1 of weeks 2, 3, 5, 9, 13, 17, 21, 25, 29, 33, and 37 thereafter.

[3] = tested on: LH; experiment: Example 9: LH
Description: as §3
Both treatment arms received treatment for 24 weeks. […] EBRT began no later than day 1, week 17.
(§5) Patients were evaluated every 4 weeks during the treatment period (including day 1, week 25), at end of treatment (defined as week 29), during follow-up (week 33), and at end of study (EOS).
as §4

[4] = tested on: PSA; experiment: Example 9: PSA
Description: as §1, §2, §5
(§6) Samples for testosterone, luteinizing hormone (LH), FSH, and PSA concentrations were taken at screening, on day 1 of the first week (additionally days 2 and 4 for testosterone and LH), and on day 1 of weeks 2, 3, 5, 9, 13, 17, 21, 25, 29, 33, and 37 thereafter. […] Suppression of FSH was less profound than that of LH, but consistent with the literature, and was greater than that observed with GnRH agonists.

[5] = tested on: FSH; experiment: Example 9: FSH
Description: as §1, §2, §5, §6

[6] = from baseline (day 1) to week 25
[7] = subjects with at least 24 weeks of treatment

## CC(=O)N[C@H](Cc1ccc2ccccc2c1)C(=O)N[C@H](Cc1ccc(Cl)cc1)C(=O)N[C@H](Cc1cccnc1)C(=O)N[C@@H](CO)C(=O)N[C@@H](Cc1ccc(NC(=O)[C@@H]2CC(=O)NC(=O)N2)cc1)C(=O)N[C@H](Cc1ccc(NC(N)=O)cc1)C(=O)N[C@@H](CC(C)C)C(=O)N[C@@H](CCCCNC(C)C)C(=O)N1CCC[C@H]1C(=O)N[C@H](C)C(N)=O [Degarelix, degarelix, reference compound] (Ac-[d2Nal][dPhe(4-Cl)][d3Pal]S[Phe(4-NH2)](Dihydroorotyl(S))[dPhe(4-NHCONH2)]L[Lys(iPr)]P[dA]-NH2)
[1]; [6]
  Global health/QoL, Mean (SD) change: −7.5 (13.7)
  Hormonal treatment-related symptoms, Mean (SD) change: 12.9 (10.4)
  Sexual activity, Mean (SD) change: −11.8 (36.3)
[1]; from baseline to week 36 (EOS)
  Global health/QoL, Mean (SD) change: −6.8 (16.0)
  Hormonal treatment-related symptoms, Mean (SD) change: 11.7 (10.2)
  Sexual activity, Mean (SD) change: −5.3 (34.7)
[1]; from week 25 to week 36
  Global health/QoL, Mean (SD) change: 0.7 (15.5)
  Hormonal treatment-related symptoms, Mean (SD) change: −1.2 (9.1)
  Sexual activity, Mean (SD) change: 6.6 (22.8)
[2]; 4 weeks from last dose
  Kaplan-Meier estimate (95% CI) of testosterone recovery, probability of event: 0.00 (0.00.0.00)
[2]; 8 weeks from last dose
  Kaplan-Meier estimate (95% CI) of testosterone recovery, probability of event: 0.00 (0.00.0.00)
[2]; 12-week follow-up
  patients whose serum testosterone met the definition of recovery: 6 of 38
[2]
  Percent recovery (95% CI) to baseline testosterone or >280 ng/dL: 5.3 (0.6.17.7) %
[2]; listed as degarelix
  Percent recovery (95% CI) to baseline testosterone or >280 ng/dL: 5.3%
[2]; Baseline
  Median testosterone: 403.8 ng/dL
  Testosterone Median: 14.020 nmol/L
[2]; Baseline, Compound 1 120 mg QD or degarelix 80 mg Q4W
  Testosterone Mean (Std Dev): 14.567 (5.5680) nmol/L
[2]; EOS
  Testosterone Mean (Std Dev): 3.038 (4.0224) nmol/L
  Testosterone Median: 1.040 nmol/L
[2]; EOT
  Testosterone Mean (Std Dev): 0.576 (1.2218) nmol/L
  Testosterone Median: 0.335 nmol/L
[2]; Follow-Up
  Testosterone Mean (Std Dev): 1.206 (1.9330) nmol/L
  Testosterone Median: 0.560 nmol/L
[2]; Week 24
  Median testosterone: 8.9 ng/dL
[2]; Week 25, Day 1
  Testosterone Mean (Std Dev): 0.582 (1.5107) nmol/L
  Testosterone Median: 0.310 nmol/L
[2]; Week 28/EOT visit
  Median testosterone: 9.6 ng/dL
[2]; Week 32/follow-up
  Median testosterone: 16.1 ng/dL
[2]; Week 36/EOS
  Median testosterone: 30.0 ng/dL
[2]; end of 12-week follow-up
  patients recovered to baseline testosterone or greater than 280 ng/dL: 6%
[2]; end of study visit
  median serum testosterone: < 50 ng/dL
[2]; in vivo
  Median time to medical castration (≤50 ng/dL): 3 days
  Median time to profound castration (≤20 ng/dL): 12 days
[2]; over 24 weeks, overall
  medical castration rate (less than 50 ng/dL): 89%
  profound castration rate (less than 20 ng/dL): 68%
[2]; overall safety population
  Testosterone recovery (baseline or >280 ng/dL): number with events: 6 (16) n (%)
  Testosterone recovery: number censored: 32 (84) n (%)
  Time to testosterone recovery, 25th percentile (95% CI): 100 (87.106) days
  Time to testosterone recovery, 75th percentile (95% CI): 106 (100.106) days
  Time to testosterone recovery, Median (95% CI): 100 (100.106) days
[2]; overall safety population, listed as degarelix
  Time to testosterone recovery, Median (95% CI): 100 (100, 106) days
[2]; [7]
  medical castration rate (less than 50 ng/dL): 86%
  profound castration rate (less than 20 ng/dL): 71%
[3]; Baseline
  Median LH: 4.8 mlU/mL
[3]; Day 4
  LH level: 0.499 mIU/mL
[3]; Week 24
  Median LH: 0.1 mlU/mL
[3]; Week 25, Day 1
  mean LH level: 0.342 IU/L
[3]; Week 28/EOT visit
  Median LH: 0.2 mlU/mL
[3]; Week 32/follow-up
  Median LH: 0.5 mlU/mL
[3]; Week 36/EOS
  Median LH: 1.4 mlU/mL
[4]; Baseline
  Median PSA: 7.3 µg/L
[4]; Week 24
  Median PSA: 0.1 µg/L
[4]; Week 28/EOT visit
  Median PSA: 0.07 µg/L
[4]; Week 32/follow-up
  Median PSA: 0.07 µg/L
[4]; Week 36/EOS
  Median PSA: 0.07 µg/L
[4]; by the end of 12 weeks
  patients achieving PSA values less than 0.2 ng/ml: 1 of 20
[5]; Baseline
  FSH level before administration: 11.716 IU/L
[5]; Week 2, Day 1
  FSH level: 2.519 IU/L
[5]; Week 25, Day 1
  mean FSH level: 1.471 IU/L
